Molecules are shown by their SMILES. Like-named read-outs stand apart in the source and are kept apart here.

Test [1] deals with Lew recipients of heterotopic BN heart transplants. In words: Five-day heart allograft study: CD3+/CD68+ immunohistochemistry. Format: in vivo, rat. The conditions noted are these: for CD68+ cell infiltration compared to Tac HD group / CD68+ cells compared to no medication group: HD groups, five days, p<0.001; for CD68+ and CD3+ cell infiltration compared to Tac LD group: LD groups (Compound I 15 mg/kg BID, Compound III 5 mg/kg BID), p<0.05. An excerpt:
Male Brown Norway (BN) and Lewis (Lew) rats weighing 350 g were purchased from Harlan (Indianapolis, Ind.) and were housed under conventional conditions. All animals were fed standard rat chow and water ad libitum and received humane care in compliance with the Principles of Laboratory Animal Care formulated by the National Society for Medical Research and the Guide for the care and Use of Laboratory Animals published by the National Institutes of Health (National Institutes of Health publication No. 85-23, revised 1985). Allogeneic (BN-to-Lew) and syngeneic (Lew-to-Lew) heterotopic heart transplantations were performed as described previously (Ono et al., J. Thorac. Cardiovasc. Surg. 57:225-229, 1969). In brief, rats were anaesthetized using 2% isoflurane. The donor received an intravenous bolus of 500 I.U. heparin. Cardiac arrest was achieved using 20 ml Bretschneider solution (Custodiol, Dr. F. Koehler Chemie, Bensheim, Germany). […] Heart-beating score was assessed directly after transplantation for each animal from score 0 (no palpable contraction) to 4 (strong and regular contraction). Only animals with beating scores of 4 were included into the study.
Compound I and Compound III were provided by Rigel (South San Francisco, Calif.) and Tacrolimus was provided by Astellas (Munich, Germany). All drugs were administrated orally each in two different concentrations: Compound I LD (15 mg/kg BID; n=6) and HD (60 mg/kg BID; n=6); Compound III LD (5 mg/kg BID; n=6) and HD (20 mg/kg BID; n=6); Tac LD (1 mg/kg QD; n=6) and HD (4 mg/kg QD; n=6). Administration of all drugs was performed every day at the same time points. Tacrolimus was applied only once a day (QD) every 24 hours. During administration of Compound I (BID) and Compound III (BID) a 12 hour pause was kept in between each drug application.
Lew recipients of heterotopic BN heart transplants were randomly assigned to their group. Animals were either left untreated (groups 1 and 2; see Table 1,5-day study) or received their group specific medication (groups 3-8; see Table 1,5-day study) by oral application. An untreated syngeneic transplant group Lew-Lew was generated as control.
Paraffin-embedded tissue sections were deparaffinized and rehydrated. Sections were incubated with protein blocking solution (ZytoChem Plus (AP) Polymer Kit; Zytomed Systems GmbH, Berlin, Germany) to prevent background staining. After antigen retrieval, specific antibodies against rat CD68 and CD3 (Serotec, Raleigh, N.C.) were applied to identify macrophages and lymphocytes, respectively, and visualized via alkaline phosphatase and new fuchsin substrate reaction (Zytomed System GmbH; Dako, Carpinteria, Calif.). Sections were counterstained by H+E (Waldeck). After overnight incubation with primary antibody solution and subsequent washing, enhancement reagent (ZytoChem) was applied, followed by enzymatic reaction of alkaline phosphatase induced by New Fuchsin Substrate System (Dako).
Inflammatory cell densities within the myocardium were assessed with the Leica QWin software (Leica Microsystems GmbH, Wetzlar, Germany) and expressed as cells/high-power field (HPF). Histological analyses of all stainings were done by a pathologist.

In test [2] the test system is human peripheral blood lymphocytes. Nature of the test: Mixed lymphocyte reaction (MLR). It counts as cell-based. The protocol:
(§1) The activity of Compound III and Compound I was assessed in a panel of cell-based assays. Compound III and Compound I are selective inhibitors of JAK1/3-dependent signaling. Data for a non-selective JAK inhibitor (Compound IV) is shown for reference. Mixed lymphocyte reactions (MLRs) were performed by incubating freshly prepared naive human peripheral blood lymphocytes from one donor with CD80+/CD86+ mature Dendritic Cells derived from a different donor for 5 days. The percentage of CD3+/CD71+ (anti-CD3-APC, Clone HIT3a, anti-CD 71-FITC, Clone M-A712; BD Biosciences, San Jose, Calif.) proliferating cells was assessed by fluorescence-activated cell sorting (FACS; BD Bioscience). Interleukin-2 (IL-2)-dependent human primary T cell proliferation was assessed using CellTiter-Glo® Luminescent Cell Viability Assay (Promega, Madison, Wis.). STAT phosphorylation induced by different cytokines in human primary T cells was measured by intracellular FACS analysis (anti-pY694-STAT5 AlexaFluor488, anti-pY701-STAT1 AlexaFluor488, and anti-pY693-STAT4 AlexaFluor488; BD Biosciences). STAT phosphorylation induced by different cytokines was performed in whole blood after red blood cell lysis (Lyse/Fix buffer, BD Biosciences) and methanol permeabilization. Interferon-γ (IFN-γ) signaling was assessed in the U937 monocytic cell line by measuring ICAM-1 surface expression by FACS (ICAM-1-APC, BD Bioscience).

Test [3] has as its system JAK1/3. Nature of the test: IL-2 T cell phospho-STAT5. It counts as cell-based. The following applies: Homo sapiens. The method, then: as §1
Test [4] has as its system JAK2. Nature of the test: GM-CSF whole blood granulocytes phospho-STAT5. Format: cell-based. The conditions noted are these: read-out: GM-CSF whole blood granulocytes phospho-STAT5 EC50. The protocol:
as §1, with “STAT phosphorylation induced by different cytokines was performed in whole blood after red blood cell lysis (Lyse/Fix buffer, BD Biosciences) and methanol permeabilization.” left out

Test [5] deals with JAK2. In words: EPO-dependent survival of cultured human erythroid progenitor cells (CHEP). The following applies: for EC50: Homo sapiens, Erythroid progenitor cell, read-out: EPO CHEP Survival EC50. It counts as cell-based. The method, then:
The erythropoietin (EPO)-dependent survival of cultured human erythroid progenitor cells (CHEPs) was determined using CellTiter-Glo® Luminescent Cell Viability Assay (Promega). Human primary T cell activation was assessed by measuring IL-2 production by ELISA (R&D Systems, Minneapolis, Minn., USA) following plate-bound anti-CD3 and anti-CD28 stimulation (Anti-Human CD3; BD Biosciences; Anti-Human CD28; Immunotech; Prague, Czech Republic). The enzymatic activity of tryptase released by human cultured mast cells (CHMCs) upon stimulation with IgE was quantified by cleavage of the synthetic fluorescent peptide substrate Z-Ala-Lys-Arg-7-amino-4-methylcoumarin (MP Biomedicals, Solon, Ohio, USA) in tryptase buffer. B-cell receptor-dependent Erk phosphorylation was measured in Ramos cells by intracellular FACS (anti-pT202/pY204-ERK1/2-AlexaFluor488; BD Biosciences). Cell proliferation assays were performed using A549 epithelial cells and H1299 lung carcinoma cells using nuclear staining to measure cell numbers (4′6-diamidino-2-phenylindole, dihydrochloride (DAPI; Invitrogen, Darmstadt, Germany)).

The mark [6] stands for this setting: read-out: EC50, proliferative response of human primary T-cells in the mixed lymphocyte reaction.
[7] abbreviates: read-out: EC50, JAK1/3-dependent Stat5 phosphorylation in response to IL-2.

As to `COc1cc(Nc2ncc(C)c(Nc3ccc4oc(=O)[nH]c4c3)n2)cc(C)c1C` [Compound III, 5-(2-(3-methoxy-4,5-dimethylphenylamino)-5-methylpyrimidin-4-ylamino)benzol[d]oxazol-2-(3H)-one], the “CD68+ cell infiltration compared to Tac HD group” value in test [1] is given as “significantly less”. Moreover, in test [1], the “CD68+ cells compared to no medication group” value is on record as “significantly reduced”. For the same compound, the “CD68+ and CD3+ cell infiltration compared to Tac LD group” value in test [1] is “less CD68+ and CD3+ cell infiltration”. For the same compound, the EC50 is 22 ± 6 nM in test [2] (120 h, read-out: MLR EC50); 22 nM in test [2] (setting [6]); 35 nM in test [3] (setting [7]); 35 ± 15 nM in test [3] (read-out: IL-2 T cell phospho-STAT5 EC50); more than 50000 nM in test [4]; 1110 ± 339 nM in test [5]. Besides, the “inhibition of JAK2-dependent CHEP differentiation and survival in response to EPO” value in test [5] was “limited inhibition”.
`COc1cc(Nc2ncc(C)c(Nc3ccc4oc(=O)[nH]c4c3)n2)cc(C)c1F` [Compound I, 5-(2-(4-fluoro-3-methoxy-5-methylphenylamino)-5-methylpyrimidin-4-ylamino)benzo[d]oxazol-2(3H)-one]: the “CD68+ cell infiltration compared to Tac HD group” value in test [1] is “significantly less”. The “CD68+ cells compared to no medication group” value in test [1] is listed as “significantly reduced”. Moreover, the “CD68+ and CD3+ cell infiltration compared to Tac LD group” value in test [1] was “less CD68+ and CD3+ cell infiltration”. For the same compound, the EC50 amounted to 16 ± 7 nM in test [2] (120 h, 5 days, CD3+/CD71+ proliferating cells by FACS, read-out: MLR EC50); 16 nM in test [2] (setting [6]); 21 nM in test [3] (setting [7]); 21 ± 9 nM in test [3] (upstream kinases JAK1/3, read-out: IL-2 T cell phospho-STAT5 EC50); 32700 ± 9510 nM in test [4] (whole blood, JAK2); 490 ± 246 nM in test [5] (upstream kinase JAK2). Moreover, the “inhibition of JAK2-dependent CHEP differentiation and survival in response to EPO” value in test [5] is reported as “limited inhibition”.

Source of the values: patent US8637038B2, “Methods for inhibiting allograft rejection” (Rigel Pharmaceuticals, Inc., priority 2011, dated 2014).
